Measured values reported in patent US10836763B2, “5 to 7 membered heterocyclic amides as JAK inhibitors” (priority 2018, dated 2020).

Legend:
JAK1 = JAK1 (Homo sapiens (Human), UniProt P23458); assay: Biochemical JAK kinase assay (LanthaScreen), JAK1; conditions: ATP at Km 25 μM; pIC50 converted with Cheng-Prusoff
Experimental: Assay 1: Biochemical JAK Kinase Assays
A panel of four LanthaScreen JAK biochemical assays (JAK1, 2, 3 and Tyk2) were carried in a common kinase reaction buffer (50 mM HEPES, pH 7.5, 0.01% Brij-35, 10 mM MgCl2, and 1 mM EGTA). Recombinant GST-tagged JAK enzymes and a GFP-tagged STAT1 peptide substrate were obtained from Life Technologies.
Serially diluted compounds were pre-incubated with each of the four JAK enzymes and the substrate in white 384-well microplates (Corning) at ambient temperature for 1 h. ATP was subsequently added to initiate the kinase reactions in 10 μL total volume, with 1% DMSO. […] Kinase reactions were allowed to proceed for 1 hour at ambient temperature before a 10 μL preparation of EDTA (10 mM final concentration) and Tb-anti-pSTAT1 (pTyr701) antibody (Life Technologies, 2 nM final concentration) in TR-FRET dilution buffer (Life Technologies) was added. The plates were allowed to incubate at ambient temperature for 1 h before being read on the EnVision reader (Perkin Elmer). Emission ratio signals (520 nm/495 nm) were recorded and utilized to calculate the percent inhibition values based on DMSO and background controls.
For dose-response analysis, percent inhibition data were plotted vs. compound concentrations, and IC50 values were determined from a 4-parameter robust fit model with the Prism software (GraphPad Software). Results were expressed as pIC50 (negative logarithm of IC50) and subsequently converted to pKi (negative logarithm of dissociation constant, Ki) using the Cheng-Prusoff equation.

[1] = system: TSLP-evoked TARC release in human peripheral blood mononuclear cells; assay: Inhibition of TSLP-evoked TARC release in human peripheral blood mononuclear cells; type: cell-based; conditions: PBMC from 3 to 5 donors, TSLP 10 ng/mL, 48 hours, TARC ELISA, read-out: pIC50 ± st. dev., inhibition of TSLP-evoked TARC release (converted)
Text: Assay 4: Inhibition of TSLP-Evoked TARC Release in Human Peripheral Blood Mononuclear Cells
Thymic stromal lymphopoietin (TSLP) and thymus and activation-regulated chemokine (TARC) are overexpressed in asthmatic airways, and correlate with disease severity. In the lungs, TSLP may be released by bronchial epithelial cells in response to allergens and viral infections. TSLP signals through an IL-7Rα/TSLPR heterodimer found in a broad range of tissues and cell types, including epithelial cells, endothelial cells, neutrophils, macrophages, and mast cells. The binding of TSLP to its receptor induces a conformational change that activates JAK1 and JAK2 to phosphorylate various transcription factors, including STAT3 and STAT5. In immune cells, this triggers a cascade of intracellular events that result in cell proliferation, anti-apoptosis, dendritic cell migration, and production of Th2 cytokines and chemokines. In peripheral blood mononuclear cells (PBMC), TSLP has a proinflammatory effect by activating myeloid dendritic cells to attract and stimulate T cells, a process mediated by the chemoattractant TARC.
The potencies of the test compounds were measured for inhibition of TARC release.
PBMC aliquots (previously isolated from whole blood and frozen in aliquots at −80° C.) from 3 to 5 donors were thawed at 37° C. and added dropwise to 40 mL pre-warmed, sterile-filtered, complete RPMI media in 50 mL Falcon tubes. Cells were pelleted and resuspended in complete media at 2.24×10^6 cells/mL. Cells were seeded at […] (190,000 cells) per well in a tissue culture treated 96-well flat bottom microplate. Cells were allowed to rest for 1 hour at 37° C. with 5% CO2.
Compounds were received as 10 mM stock solutions in DMSO. 3.7-fold serial dilutions were performed to generate 9 concentrations of test compound in DMSO at 300× the final assay test concentration. […] After the 1 hour rest period, 95 µL of 2× compound was added to each well of PBMC, for a final assay concentration range of 33.33 μM to […]. 95 μL of 0.2% DMSO in complete media was added to the untreated control wells. Cells were pre-treated with compound for 1 hour at 37° C. with 5% CO2 prior to stimulation.
Recombinant human TSLP protein was reconstituted at 10 μg/mL in sterile DPBS with 0.1% BSA and stored in aliquots at −20° C. Immediately prior to use, an aliquot was thawed and prepared at 20× the final assay concentration in complete media. 10 μL of 20×TSLP was added to each well of PBMC, for a final assay concentration of 10 ng/mL. 10 μL of complete media was added to the unstimulated control wells. Cells were stimulated in the presence of compound for 48 hours at 37° C. with 5% CO2.
Following stimulation, the cell culture supernatants were harvested and TARC levels were detected by enzyme-linked immunosorbent assay (ELISA), using Human CCL17/TARC Quantikine ELISA Kit (R&D Systems # DDN00) according to the manufacturer's instructions.
For dose response analysis, the log [test compound (M)] was plotted versus the percent response values for each donor, and IC50 values were determined using a nonlinear regression analysis with GraphPad Prism Software using the 4-parameter sigmoidal dose-response algorithm with variable slope. Data are expressed as mean pIC50 (negative decadic logarithm IC50) values calculated from pIC50 values of individual donors and rounded to one decimal place.

Lung S9 metabolism = type: in vitro ADME, human
Experimental: Assay 5: Lung S9 Metabolism […] Lung S9 fractions from human (lot 1410245) were purchased from XenoTech LLC (Lenexa, Kans.). NADPH (Sigma Aldrich, N1630) and 3-phosphoadenosine 5-phosphosulfate (PAPS) (Sigma Aldrich, A1651) were purchased from Sigma Aldrich (St. Louis, Mo.). Acetonitrile and water were obtained from VWR (Radnor, Pa.) and were of HPLC grade or better. Raloxifene and formic acid was purchased from Sigma Aldrich (St. Louis, Mo.). Lung S9 incubations were performed in a water bath at 37° C. in a 96-well polypropylene plate. […] All samples were centrifuged at 2250 g for 10 minutes at 5° C. Supernatant (50 μL) was taken from the centrifuged samples and diluted into 100 μL HPLC water containing internal standard. […] Mobile Phase A consisted of Water+0.2% formic acid and Mobile Phase B consisted of acetonitrile+0.2% formic acid. Peak integration was accomplished using Gubbs GMSU software (Gubbs Inc., Alpharetta, Ga.). For each sample, peak area ratios were calculated by dividing the analyte peak area by the internal standard peak area. […] Determination of sulfate metabolite formation was made qualitatively by observation of early-eluting peak in the parent ion channel which, based on historical internal data, corresponded to the O-sulfate metabolite of each parent compound.

Chain of JAK1 (P23458 whole entry): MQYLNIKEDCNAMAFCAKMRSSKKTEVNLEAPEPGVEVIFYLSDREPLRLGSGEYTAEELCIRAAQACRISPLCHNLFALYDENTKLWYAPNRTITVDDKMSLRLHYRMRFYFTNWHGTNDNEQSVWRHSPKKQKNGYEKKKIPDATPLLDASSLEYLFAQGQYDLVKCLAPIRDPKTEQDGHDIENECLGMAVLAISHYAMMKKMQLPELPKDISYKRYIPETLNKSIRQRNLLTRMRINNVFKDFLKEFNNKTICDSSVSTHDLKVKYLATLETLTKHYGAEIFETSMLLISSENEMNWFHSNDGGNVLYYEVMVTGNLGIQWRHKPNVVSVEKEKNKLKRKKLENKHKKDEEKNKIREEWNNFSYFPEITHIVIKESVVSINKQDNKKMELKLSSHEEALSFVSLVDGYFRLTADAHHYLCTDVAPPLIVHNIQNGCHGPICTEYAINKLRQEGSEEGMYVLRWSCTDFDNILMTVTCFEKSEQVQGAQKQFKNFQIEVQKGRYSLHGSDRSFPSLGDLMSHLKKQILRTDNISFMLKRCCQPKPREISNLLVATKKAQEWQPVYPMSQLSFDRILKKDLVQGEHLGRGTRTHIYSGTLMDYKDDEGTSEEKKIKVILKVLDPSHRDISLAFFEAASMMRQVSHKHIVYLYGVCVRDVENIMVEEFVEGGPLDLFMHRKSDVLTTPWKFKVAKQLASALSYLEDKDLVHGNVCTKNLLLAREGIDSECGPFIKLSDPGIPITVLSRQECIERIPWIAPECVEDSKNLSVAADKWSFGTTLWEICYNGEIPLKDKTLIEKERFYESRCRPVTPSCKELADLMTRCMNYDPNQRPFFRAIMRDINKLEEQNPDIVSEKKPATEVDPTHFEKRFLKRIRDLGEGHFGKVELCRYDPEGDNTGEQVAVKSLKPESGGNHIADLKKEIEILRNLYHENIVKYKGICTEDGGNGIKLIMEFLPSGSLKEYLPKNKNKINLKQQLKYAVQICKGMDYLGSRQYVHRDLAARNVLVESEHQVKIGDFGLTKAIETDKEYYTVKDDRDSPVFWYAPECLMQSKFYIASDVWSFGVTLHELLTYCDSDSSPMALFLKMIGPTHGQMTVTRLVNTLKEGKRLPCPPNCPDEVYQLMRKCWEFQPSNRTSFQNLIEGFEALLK

CCCN1Cc2[nH]c(-c3n[nH]c4cc(-c5ccc(O)cc5CC)ccc34)nc2C[C@H]1C(=O)N1CCN(CCO)CC1 [Compound 1, (S)-(2-(6-(2-ethyl-4-hydroxyphenyl)-1H-indazol-3-yl)-5-propyl-4,5,6,7-tetrahydro-3H-imidazo[4,5-c]pyridin-6-yl)(4-(2-hydroxyethyl)piperazin-1-yl)methanone]
JAK1 pKi (JAK1): 10.2 | IC50 [1]: 0.0794 µM | Compound Remaining at 60 min (%) (Lung S9 metabolism; human lung S9, 1 μM compound, 1 mg/mL S9 protein, NADPH and PAPS): 78% | microsomal CLint at 1 µM (Lung S9 metabolism; lung S9 fraction, pH 7.4, human lung S9, 1 μM compound, 1 mg/mL S9 protein, NADPH and PAPS, read-out: Clearance): 4.2 µL/min/mg | Sulfate Appearance (Lung S9 metabolism; qualitative, O-sulfate metabolite peak in human lung S9): Yes
